Measurements: patent publication US8685970B2, “Quinolines and related analogs as sirtuin modulators” (GlaxoSmithKline, LLC, priority 2008, dated 2014)

target: T1, SIRT1 (Homo sapiens, UniProt Q96EB6); assay: Mass spectrometry based SIRT1 deacetylation assay (activation); type: biochemical; conditions: 10 nM SIRT1, 0.5 μM peptide substrate, 120 μM βNAD+, 25 min at 25° C.
T1 sequence (Q96EB6 1-747): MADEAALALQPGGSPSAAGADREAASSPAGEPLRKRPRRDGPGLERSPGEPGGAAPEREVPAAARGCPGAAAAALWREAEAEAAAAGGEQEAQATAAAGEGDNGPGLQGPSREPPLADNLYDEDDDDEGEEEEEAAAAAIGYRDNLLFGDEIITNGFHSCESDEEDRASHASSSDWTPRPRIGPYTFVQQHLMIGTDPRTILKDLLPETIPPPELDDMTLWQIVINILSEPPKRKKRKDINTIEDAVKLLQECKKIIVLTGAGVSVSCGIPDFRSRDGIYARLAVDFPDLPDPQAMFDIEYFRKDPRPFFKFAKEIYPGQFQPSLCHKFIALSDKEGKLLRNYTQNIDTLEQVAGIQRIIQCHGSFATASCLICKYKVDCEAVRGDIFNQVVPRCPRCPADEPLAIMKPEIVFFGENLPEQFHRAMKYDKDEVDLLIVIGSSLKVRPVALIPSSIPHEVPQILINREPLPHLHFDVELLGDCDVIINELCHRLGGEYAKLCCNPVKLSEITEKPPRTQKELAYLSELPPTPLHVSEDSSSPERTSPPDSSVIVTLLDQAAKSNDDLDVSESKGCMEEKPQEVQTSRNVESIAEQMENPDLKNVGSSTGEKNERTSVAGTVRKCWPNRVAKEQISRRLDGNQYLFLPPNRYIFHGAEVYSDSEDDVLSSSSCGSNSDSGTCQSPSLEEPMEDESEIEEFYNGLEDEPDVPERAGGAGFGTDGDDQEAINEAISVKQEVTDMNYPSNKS
Summary of the method: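 Recombinant N-His-tagged SIRT1 (E. coli BL21(DE3)), 10 nM, incubated 25 min at 25 °C with 0.5 μM biotin/5TMR-labelled acetyl-p53-derived 20-mer peptide and 120 μM βNAD+ in Tris-acetate pH 8 buffer with DTT and BSA. Formic acid stop; MS quantifies acetylated vs deacetylated peptide. EC1.5 = concentration giving 150% activation versus DMSO.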

Row | SMILES | % Fold Act. (percent maximum fold activation) | EC1.5 (concentration of test compound that results in 150% activation of SIRT1)
1 | Cc1nnc(NC(=O)c2cccc3ccc(-c4cccc(N5CCOCC5)c4)nc23)s1 [Compound 252] | A (Fold activation >200%) | A (EC1.5<1.0 uM)
2 | Cc1cc(NC(=O)c2cccc3ccc(-c4cccc(N5CCOCC5)c4)nc23)sn1 [Compound 253] | A (Fold activation >200%) | A (EC1.5<1.0 uM)
3 | O=C(Nc1ccncc1)c1cccc2ccc(-c3cccc(N4CCOCC4)c3)nc12 [Compound 254] | A (Fold activation >200%) | A (EC1.5<1.0 uM)
4 | O=C(Nc1cccc(CN2CCOCC2)c1)c1cccc2ccc(-c3cccc(C(F)(F)F)c3)nc12 [Compound 255] | A (Fold activation >200%) | A (EC1.5<1.0 uM)
5 | O=C(Nc1cccc(OC2CCNCC2)c1)c1cccc2ccc(-c3cccc(C(F)(F)F)c3)nc12 [Compound 256] | A (Fold activation >200%) | A (EC1.5<1.0 uM)
6 | O=C(Nc1cccc(OC2CCNC2)c1)c1cccc2ccc(-c3cccc(C(F)(F)F)c3)nc12 (stereo not shown) [Compound 257] | A (Fold activation >200%) | A (EC1.5<1.0 uM)
7 | O=C(Nc1ncnc2ccc(-c3cccc(C(F)(F)F)c3)nc12)c1cccc(C(F)(F)F)c1 [Compound 258] |  | C (EC1.5>25 uM)
8 | O=C(Nc1ncnc2ccc(-c3cccc(C(F)(F)F)c3)nc12)c1cscn1 [Compound 259] | A (Fold activation >200%) | A (EC1.5<1.0 uM)
9 | O=C(Nc1cccnc1)c1cccc2ccc(-c3cccc(C(F)F)c3)nc12 [Compound 260] | A (Fold activation >200%) | A (EC1.5<1.0 uM)
10 | O=C(Nc1nc(CN2CCCC2)cs1)c1cccc2ccc(-c3cccc(C(F)F)c3)nc12 [Compound 261] | A (Fold activation >200%) | A (EC1.5<1.0 uM)
11 | O=C(Nc1ncc(CN2CCCC2)s1)c1cccc2ccc(-c3cccc(C(F)F)c3)nc12 [Compound 262] | A (Fold activation >200%) | B (EC1.5 1-25 uM)
12 | O=C(Nc1cccnn1)c1cccc2ccc(-c3cccnc3)nc12 [Compound 263] | A (Fold activation >200%) | A (EC1.5<1.0 uM)
13 | Cc1nnc(NC(=O)c2cccc3ccc(-c4cccnc4)nc23)o1 [Compound 264] |  | C (EC1.5>25 uM)
14 | O=C(Nc1ccc(F)cn1)c1cccc2ccc(-c3cccnc3)nc12 [Compound 265] |  | C (EC1.5>25 uM)
15 | O=C(Nc1ccc(Cl)cn1)c1cccc2ccc(-c3cccnc3)nc12 [Compound 266] |  | C (EC1.5>25 uM)
16 | Cc1cc(C)nc(NC(=O)c2cccc3ccc(-c4cccc(N5CCOCC5)c4)nc23)c1 [Compound 267] | A (Fold activation >200%) | A (EC1.5<1.0 uM)
17 | Cc1cccc(NC(=O)c2cccc3ccc(-c4cccc(N5CCOCC5)c4)nc23)n1 [Compound 268] | A (Fold activation >200%) | A (EC1.5<1.0 uM)
18 | O=C(Nc1cccnn1)c1cccc2ccc(-c3cccc(N4CCOCC4)c3)nc12 [Compound 269] | A (Fold activation >200%) | A (EC1.5<1.0 uM)
19 | O=C(Nc1nccs1)c1cccc2cnc(-c3cccc(C(F)(F)F)c3)nc12 [Compound 270] |  | C (EC1.5>25 uM)
20 | O=C(Nc1ccncn1)c1cccc2cnc(-c3cccc(C(F)(F)F)c3)nc12 [Compound 271] | B (Fold Activation <200%) | B (EC1.5 1-25 uM)

Row | SMILES | % Fold Act. (percent maximum fold activation) | EC1.5 (concentration of test compound that results in 150% activation of SIRT1)
21 | Cn1ccc(NC(=O)c2cccc3ccc(-c4cccc(C(F)(F)F)c4)nc23)n1 [Compound 272] | A (Fold activation >200%) | A (EC1.5<1.0 uM)
22 | O=S(=O)(Nc1cccc2ccc(-c3cccc(C(F)(F)F)c3)nc12)c1ccccn1 [Compound 273] |  | C (EC1.5>25 uM)
23 | O=C(Nc1nc(CN2CCOCC2)cs1)c1cccc2ccc(-c3ccccc3C(F)(F)F)nc12 [Compound 274] | A (Fold activation >200%) | A (EC1.5<1.0 uM)
24 | Cc1nnc(NC(=O)c2cccc3ccc(-c4cccc(C(F)(F)F)c4)nc23)s1 [Compound 275] | B (Fold Activation <200%) | A (EC1.5<1.0 uM)
25 | Cc1nnc(NC(=O)c2cccc3ccc(-c4cccc(N5CCOCC5)c4)nc23)o1 [Compound 276] | A (Fold activation >200%) | A (EC1.5<1.0 uM)
26 | O=C(Nc1ccc(F)cn1)c1cccc2ccc(-c3cccc(N4CCOCC4)c3)nc12 [Compound 277] | A (Fold activation >200%) | A (EC1.5<1.0 uM)
27 | O=C(Nc1ccc(Cl)cn1)c1cccc2ccc(-c3cccc(N4CCOCC4)c3)nc12 [Compound 278] | A (Fold activation >200%) | A (EC1.5<1.0 uM)
28 | O=C(Nc1cnccn1)c1cccc2ccc(-c3cccc(N4CCOCC4)c3)nc12 [Compound 279] | A (Fold activation >200%) | A (EC1.5<1.0 uM)
29 | O=C(Nc1nccs1)c1cccc2cnc(-c3cccnc3)nc12 [Compound 280] |  | C (EC1.5>25 uM)
30 | Cc1csc(NC(=O)c2cccc3cnc(-c4cccc(C(F)(F)F)c4)nc23)n1 [Compound 281] | A (Fold activation >200%) | B (EC1.5 1-25 uM)
31 | O=C(Nc1cccnc1)c1cccc2cnc(-c3cccc(C(F)(F)F)c3)nc12 [Compound 282] |  | C (EC1.5>25 uM)
32 | O=C(Nc1ccccn1)c1cccc2cnc(-c3cccc(C(F)(F)F)c3)nc12 [Compound 283] |  | C (EC1.5>25 uM)
33 | Cn1ccc(C(=O)Nc2cccc3ccc(-c4cncc(F)c4)nc23)n1 [Compound 284] |  | C (EC1.5>25 uM)
34 | O=C(Nc1ccc(CN2CCCC2)cn1)c1cccc2ccc(-c3cccc(C(F)(F)F)c3)nc12 [Compound 285] | A (Fold activation >200%) | A (EC1.5<1.0 uM)
35 | O=C(Nc1cccc(CN2CCOCC2)c1)c1cccc2ccc(-c3cccc(C(F)F)c3)nc12 [Compound 286] | A (Fold activation >200%) | A (EC1.5<1.0 uM)
36 | O=C(Nc1cccc(CN2CCOCC2)n1)c1cccc2ccc(-c3cccc(C(F)F)c3)nc12 [Compound 287] | A (Fold activation >200%) | A (EC1.5<1.0 uM)
37 | O=C(Nc1cccc(CN2CCCC2)n1)c1cccc2ccc(-c3cccc(C(F)F)c3)nc12 [Compound 288] | A (Fold activation >200%) | A (EC1.5<1.0 uM)
38 | O=C(Nc1ccc(CN2CCOCC2)nc1)c1cccc2ccc(-c3cccc(C(F)F)c3)nc12 [Compound 289] | A (Fold activation >200%) | A (EC1.5<1.0 uM)
39 | O=C(Nc1ccc(CN2CCCC2)nc1)c1cccc2ccc(-c3cccc(C(F)F)c3)nc12 [Compound 290] | A (Fold activation >200%) | A (EC1.5<1.0 uM)
40 | O=C(Nc1ccc(CN2CCOCC2)nc1)c1cccc2ccc(-c3cccc(C(F)(F)F)c3)nc12 [Compound 291] | A (Fold activation >200%) | A (EC1.5<1.0 uM)
